The text below walks through data of patent publication US9956291B2, “Nanoformulation and methods of use of thyroid receptor beta1 agonists for liver targeting” (priority 2012, dated 2018).

Series [1] relates to LDLR. Description: Test for LDLR up-regulation in HepG2 cells (endogenous LDLR). Format: cell-based, human. The method, then:
(§1) The expression vector of human LDLR was constructed under the control of the cytomegalovirus promoter-enhancer (pCMV-LDLR). These constructs were used to transiently transfect mammalian cells, and cells were subjected to SDS-PAGE and immunoblot analysis using an LDLR antibody. […] Using this assay, compounds were tested for their ability to reduce the degradation of the LDLR. HEK-293 cells grown in 96-well plates overnight and transfected with LDLR were used. Compounds dissolved in DMSO or vehicle were added to the culture media, and incubated for 24-48 hours. The cells were then lysed. Both cell lysate and supernatant are subjected to quantitation using the above immunoassay. Compounds that increase the up-regulation of LDLR were selected. A similar assay was implemented using the HepG2 cells, since these cells express the LDLR endogenously.

Series [2] has as its system LDLR. Briefly: Test for LDLR up-regulation in transfected HEK-293 cells. Format: cell-based, human. The method, then: as §1
The conditions of series [3]: in vivo; cited from earlier work.
For series [4] the following is noted: cited from earlier work.
The subject of another series is high fat diet mice. Description: Nutritionally-induced hypercholesterolemia model (high fat diet mice). Format: in vivo. As to the method:
Mice were fed a high fat diet (TD.06414, Harlan Research Diet, Inc., Indianapolis, Ind.) that provides […] from fat sources increased total cholesterol. […] Male C57BL/6 mice were fed either a commercial chow diet (Prolab RMH 3000, PMI feeds, St. Louis, Mo.) to serve as a negative control, or a high fat diet (TD.06414). Plasma was collected once weekly to monitor the level of LDL-C, total cholesterol, HDL-C, and triglyceride. […] One group was treated with vehicle, and the other groups are treated with TRβ1 agonist compounds versus its Nano-targeted ones at different doses.
High-fat diet (HFD)-induced dyslipidemia in mice. FIG. 12 depicts dose-ranging of Chitosan-PLGA NP-encapsulated GC-1 and conjugated with Glycyrrhetinic acid versus un-encapsulated GC-1 for lowering total cholesterol in HFD mice, in accordance with embodiments of the present invention.

For a further series, the system named is cartilage. As to conditions: dogs, up to 12 months; cited from earlier work.
The mark [5] stands for this setting: moderately overweight and hypercholesterolemic subjects, two weeks.

For the molecule `Cc1cc(OCC(=O)O)cc(C)c1Cc1ccc(O)c(C(C)C)c1` [GC-1], the LDLR up-regulation entry is given as “None of the TR beta agonists including GC-1, KB-2115 or their nanoformulations resulted in any significant changes” in the series on LDLR [1] and “None of the TR beta agonists including GC-1, KB-2115 or their nanoformulations resulted in any significant changes” in the series on LDLR [2]. Further, the “serum cholesterol and triglyceride” value in series [3] was “lower serum cholesterol and triglyceride”. In series [4] (Phase I clinical trial), the “lowering serum cholesterol and triglyceride” value was “effective in lowering serum cholesterol and triglyceride”. For the same molecule, the “dose of maximum effect on total cholesterol (toward normal regular diet levels)” value in the series on high fat diet mice (IP daily, week 1 and week 2) is 1.0 mg/kg. Also, the “lowering of total cholesterol” value in the series with high fat diet mice (IP daily, week 1 and week 2, dose-ranging) was “dose-dependent lowering of total cholesterol”.

As to `CC(C)c1cc(Oc2c(Br)cc(NC(=O)CC(=O)O)cc2Br)ccc1O` [KB-2115], the LDLR up-regulation result in the series on LDLR [1] was “None of the TR beta agonists including GC-1, KB-2115 or their nanoformulations resulted in any significant changes”. The LDLR up-regulation entry with LDLR [2] is on record as “None of the TR beta agonists including GC-1, KB-2115 or their nanoformulations resulted in any significant changes”. Also, in series [3], the “serum cholesterol and triglyceride” value was “lower serum cholesterol and triglyceride”. Also, in series [4] (setting [5]), the “effects on the heart” value was “without detectable effects on the heart”; the “serum total and LDL cholesterol, apoB levels” value is reported as “reduced”. In the series with high fat diet mice (0.1 mg/Kg daily for 6 days), the “reduction of serum total cholesterol” value is listed as 60-80%. The cartilage damage entry with cartilage is given as “Cartilage damage was observed”.
